ChEMBL document CHEMBL3600381, “Small-molecule phosphodiesterase probes: discovery of potent and selective CNS-penetrable quinazoline inhibitors of PDE1” (Medchemcomm, 2014)

What was measured:
[1] = biological target: T1, Dual specificity calcium/calmodulin-dependent 3',5'-cyclic nucleotide phosphodiesterase 1B (Homo sapiens, UniProt Q01064); assay: Inhibition of PDE1B (unknown origin) at 1 uM
[2] = biological target: T1, Dual specificity calcium/calmodulin-dependent 3',5'-cyclic nucleotide phosphodiesterase 1B; assay: Inhibition of PDE1B (unknown origin)
[3] = biological target: cAMP and cAMP-inhibited cGMP 3',5'-cyclic phosphodiesterase 10A (Homo sapiens, UniProt Q9Y233); assay: Inhibition of PDE10A (unknown origin)
[4] = Tmax in mouse at 32 mg/kg, sc; type: ADME, organism-based; details: in vivo
[5] = Half life in rat at 10 mg/kg, sc; type: ADME, organism-based; details: in vivo
[6] = Tmax in rat at 10 mg/kg, sc; type: ADME, organism-based; details: in vivo
[7] = Half life in mouse at 32 mg/kg, sc; type: ADME, organism-based; details: in vivo
[8] = Terminal half life in rat at 50 mg/kg, po; type: ADME, organism-based; details: in vivo, read-out: beta t1/2 (converted)
Nucleic Acid [9] = assay: Ratio of drug uptake from blood to plasma in mouse at 32 mg/kg, sc; type: ADME, organism-based; details: in vivo
[10] = Ratio of drug uptake from blood to plasma in rat at 10 mg/kg, sc; type: ADME, organism-based; details: blood and plasma
[11] = Fraction unbound in mouse at 32 mg/kg, sc; type: ADME, organism-based; details: in vivo
Nucleic Acid [12] = assay: Ratio of drug level in CSF to unbound fraction in rat plasma at 10 mg/kg, sc; type: ADME, organism-based; details: in vivo
[13] = Fraction unbound in rat at 10 mg/kg, sc; type: ADME, organism-based; details: in vivo
[14] = Cmax in rat at 50 mg/kg, po after 0.25 hrs; type: ADME, organism-based; parameters: dose 50 mg/kg, route oral; details: in vivo

cAMP and cAMP-inhibited cGMP 3',5'-cyclic phosphodiesterase 10A, sequence (Q9Y233 whole entry): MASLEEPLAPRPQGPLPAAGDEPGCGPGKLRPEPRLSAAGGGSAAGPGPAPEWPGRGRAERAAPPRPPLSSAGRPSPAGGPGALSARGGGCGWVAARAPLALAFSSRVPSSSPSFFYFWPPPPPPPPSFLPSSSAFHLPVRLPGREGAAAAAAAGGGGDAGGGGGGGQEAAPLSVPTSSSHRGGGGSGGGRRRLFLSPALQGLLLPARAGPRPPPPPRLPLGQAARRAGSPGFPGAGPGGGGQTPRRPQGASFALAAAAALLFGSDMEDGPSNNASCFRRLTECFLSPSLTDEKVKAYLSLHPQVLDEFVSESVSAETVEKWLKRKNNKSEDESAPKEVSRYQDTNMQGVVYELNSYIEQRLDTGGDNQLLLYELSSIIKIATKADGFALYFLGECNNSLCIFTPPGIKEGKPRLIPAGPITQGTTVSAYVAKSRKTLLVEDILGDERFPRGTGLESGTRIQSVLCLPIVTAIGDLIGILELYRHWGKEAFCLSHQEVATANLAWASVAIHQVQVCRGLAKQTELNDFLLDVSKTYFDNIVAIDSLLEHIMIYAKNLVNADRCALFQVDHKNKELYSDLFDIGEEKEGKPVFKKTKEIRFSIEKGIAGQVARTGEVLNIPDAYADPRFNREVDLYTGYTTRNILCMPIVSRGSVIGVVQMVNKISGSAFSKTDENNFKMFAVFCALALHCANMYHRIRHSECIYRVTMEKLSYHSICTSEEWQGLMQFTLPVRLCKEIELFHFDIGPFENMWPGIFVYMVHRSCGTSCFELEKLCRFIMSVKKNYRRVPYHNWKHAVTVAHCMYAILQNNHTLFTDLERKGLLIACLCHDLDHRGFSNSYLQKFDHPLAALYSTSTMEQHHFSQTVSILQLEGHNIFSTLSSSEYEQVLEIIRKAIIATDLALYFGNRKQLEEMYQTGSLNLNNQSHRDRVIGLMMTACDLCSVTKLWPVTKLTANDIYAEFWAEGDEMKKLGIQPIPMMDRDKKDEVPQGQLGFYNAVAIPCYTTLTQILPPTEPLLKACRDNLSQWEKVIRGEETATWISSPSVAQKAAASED
T1 sequence (Q01064 whole entry): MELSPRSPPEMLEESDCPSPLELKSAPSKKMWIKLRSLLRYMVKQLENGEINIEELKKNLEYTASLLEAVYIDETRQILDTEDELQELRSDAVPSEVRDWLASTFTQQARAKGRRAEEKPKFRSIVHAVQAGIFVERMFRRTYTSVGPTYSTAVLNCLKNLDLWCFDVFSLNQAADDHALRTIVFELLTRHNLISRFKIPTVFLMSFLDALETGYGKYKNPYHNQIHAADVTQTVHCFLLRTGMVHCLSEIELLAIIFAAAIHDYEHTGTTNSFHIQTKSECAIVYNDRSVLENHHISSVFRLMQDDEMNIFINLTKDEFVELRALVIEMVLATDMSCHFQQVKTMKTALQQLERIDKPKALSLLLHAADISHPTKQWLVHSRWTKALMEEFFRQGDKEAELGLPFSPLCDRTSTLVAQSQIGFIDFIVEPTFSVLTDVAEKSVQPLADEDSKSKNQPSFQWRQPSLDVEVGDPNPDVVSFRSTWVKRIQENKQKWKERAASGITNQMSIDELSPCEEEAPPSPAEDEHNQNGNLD

inhibition [1] [%] | IC50 [2] [nM] | SMILES | other results
0 |  | COc1cc2c(N3C[C@H](C)C[C@H](C)C3)nncc2c(OC)c1OC | 
 | 70 | COc1ccc2c(N3C[C@H](C)C[C@H](C)C3)ncnc2c1OC | 
0 |  | COc1ccc2c(N3C[C@H](C)C[C@H](C)C3)ccnc2c1OC | 
0 |  | COc1cc2c(N3C[C@H](C)C[C@H](C)C3)cnnc2c(OC)c1OC | 
 |  | COc1cc2nncc(N3CC(O)CC(c4ccccc4)C3)c2cc1OC (stereo not drawn) | IC50 [3]: 1 nM
 | 458 | COc1ccc2c([C@@H]3CCc4ccc(Cl)cc43)nccc2c1OC | 
24 |  | COc1cc2ncnc(Cc3cccc(Cl)c3)c2cc1OC | 
 | 230 | COc1cc2ncnc(C(C)c3cccc(Cl)c3)c2cc1OC (stereo not drawn) | 
 | 38 | COc1ccc2c(C3CCc4ccc(F)cc43)ncnc2c1OC (stereo not drawn) | 
 |  | COc1cc2cnnc(N3CC(O)CC(c4ccccc4)C3)c2cc1OC (stereo not drawn) | IC50 [3]: 3 nM
0 |  | COc1ccc2c(N3C[C@H](C)C[C@H](C)C3)nccc2c1OC | 
 | 22 | COc1ccc2c(C(C)c3cccc(Cl)c3)ncnc2c1OC (stereo not drawn) | 
 |  | CCC(CC)Nc1ncnc2c(OC)c(OC)c(OC)cc12 | Tmax [4]: 15 min; half-life [5]: 39.6 min; Tmax [6]: 15 min; half-life [7]: 120 min; half-life [8]: 306 min; Ratio (Nucleic Acid [9]): 0.28; blood plasma ratio [10]: 0.4; fraction unbound [11]: 0.18; Ratio (Nucleic Acid [12]): 0.9; fraction unbound [13]: 0.1; Cmax [14]: 10.9 µM
 |  | COc1cc2ncnc(N3CC(O)CC(c4ccccc4)C3)c2cc1OC (stereo not drawn) | IC50 [3]: 3 nM
0 |  | COc1cc2ncnc(Cc3ccccc3)c2cc1OC | 
 | 8 | COc1ccc2c(C3CCc4ccc(Br)cc43)ncnc2c1OC (stereo not drawn) | 
 | 4 | COc1ccc2c(C3CCc4ccc(Cl)cc43)ncnc2c1OC (stereo not drawn) | 
 | 83 | COc1cc2ncnc(C3CCc4ccc(Cl)cc43)c2cc1OC (stereo not drawn) | 
